Assays:
Cathepsin D = Cathepsin D (Homo sapiens (Human), UniProt P07339); experiment: In vitro enzymatic Cat D (Cathepsin D) FRET assay; type: biochemical; conditions: average IC50
Description: In Vitro Enzymatic Cat D (Cathepsin D) FRET (Fluorescence Resonance Energy Transfer) Assay
Recombinant CathepsinD was expressed in CHO cells. The assay buffer for CathepsinD is 0.05 M citrate pH 3.5, 10% DMSO final, 5 mM CHAPS. […] The assays are effectively started by the addition of different FRET substrates (20 nM for CathepsinD) and the combination is incubated for one hour. The FRET assay is terminated with by addition of Tris buffer, which raises the pH to neutrality, and the fluorescence is determined. The FRET substrate is a peptide with commercially available fluorophore and quencher, on opposite sides of the BACE cleavage site. […] Proteolytic cleavage of the FRET substrate releases quenching of fluorescence (CathepsinD excitation 500 nm and emission 580 nm).

[1] = test system: Aβ40 in conditioned medium of cells stably expressing Amyloid Precursor Protein (APP); experiment: In vitro BACE cell-based assay (HEK cell assay, Aβ40 sandwich ELISA); conditions: average IC50, Aβ40, 24 h incubation
Description: In Vitro BACE Cell-Based Assay
The cell-based assay measures inhibition or reduction of Aβ40 in conditioned medium of test compound treated cells expressing amyloid precursor protein.
Cells stably expressing Amyloid Precursor Protein (APP) were plated at a density of 40K cells/well in 96 well plates (Costar). The cells were cultivated for 24 hours at 37° C. and 5% CO2 in DMEM supplemented with 10% FBS. The test compounds were then added to cells in 10-point dose response concentrations with the starting concentration being either 100 μM or 10 μM. The compounds were diluted from stock solutions in DMSO and the final DMSO concentration of the test compounds on cells was 0.1%. After 24 h of incubation with the test compounds the supernatant conditioned media was collected and the Aβ 40 levels were determined using a sandwich ELISA. The IC50 of the compound was calculated from the percent of control or percent inhibition of Aβ 40 as a function of the concentration of the test compound.
The sandwich ELISA to detect Aβ 40 was performed in 96 well microtiter plates, which were pre-treated with goat anti-rabbit IgG (Pierce). The capture and detecting antibody pair that were used to detect Aβ 40 from cell supernatants were affinity purified pAb40 (Biosource) and biotinylated 6E10 (Signet Labs Inc.), respectively. The optimal concentration for the pAb40 antibody was 3 μg/ml in Superblock/TBS (Pierce) that was supplemented with 0.05% Tween 20 (Sigma).
Cellular supernatants were incubated with the capture antibody for 3 h at 4° C., followed by 3 wash steps in TBS-tween (0.05%). The detecting antibody incubation was for 2 h at 4° C., again followed by the wash steps as described previously. The final readout of the ELISA is Time-Resolved Fluorescence (counts per minute) using Delfia reagents Streptavidin-Europium and Enhancement solutions (Perkin Elmer) and the Victor 2 multilabel counter (Perkin Elmer).

[2] = target: BACE 1 (beta secretase enzyme) (Homo sapiens (Human), UniProt P56817); experiment: In vitro enzymatic BACE FRET assay; type: biochemical; conditions: average IC50
Description: In Vitro Enzymatic BACE FRET (Fluorescence Resonance Energy Transfer) Assay
The assay buffer used in this screen is 0.05 M acetate, pH 4.2, 10% DMSO final, 100 uM genapol (which is a nonionic detergent, below its Critical Micelle Concentration). […] This assay is effectively started by the addition of FRET substrate (50 nM) and the combination is incubated for one hour. The FRET assay is terminated with by addition of Tris buffer, which raises the pH to neutrality, and the fluorescence is determined. The FRET substrate is a peptide with commercially available fluorophore and quencher, on opposite sides of the BACE cleavage site. Proteolytic cleavage of the FRET substrate releases quenching of fluorescence (excitation […] and […]).

Chain of BACE 1 (beta secretase enzyme) (P56817 46-501): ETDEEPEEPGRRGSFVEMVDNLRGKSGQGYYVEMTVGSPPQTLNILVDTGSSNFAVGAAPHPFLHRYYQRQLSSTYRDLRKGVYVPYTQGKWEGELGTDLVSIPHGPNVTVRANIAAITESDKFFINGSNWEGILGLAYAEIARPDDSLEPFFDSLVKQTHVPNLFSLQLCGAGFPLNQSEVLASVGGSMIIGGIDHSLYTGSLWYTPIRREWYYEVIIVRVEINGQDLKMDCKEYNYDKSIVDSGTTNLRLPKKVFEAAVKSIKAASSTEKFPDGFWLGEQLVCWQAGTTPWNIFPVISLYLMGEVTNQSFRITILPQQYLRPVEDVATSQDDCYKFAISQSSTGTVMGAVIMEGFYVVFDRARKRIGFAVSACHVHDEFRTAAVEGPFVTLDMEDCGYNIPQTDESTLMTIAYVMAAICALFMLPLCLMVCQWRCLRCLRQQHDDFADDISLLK
Chain of Cathepsin D (P07339 65-412, species assumed): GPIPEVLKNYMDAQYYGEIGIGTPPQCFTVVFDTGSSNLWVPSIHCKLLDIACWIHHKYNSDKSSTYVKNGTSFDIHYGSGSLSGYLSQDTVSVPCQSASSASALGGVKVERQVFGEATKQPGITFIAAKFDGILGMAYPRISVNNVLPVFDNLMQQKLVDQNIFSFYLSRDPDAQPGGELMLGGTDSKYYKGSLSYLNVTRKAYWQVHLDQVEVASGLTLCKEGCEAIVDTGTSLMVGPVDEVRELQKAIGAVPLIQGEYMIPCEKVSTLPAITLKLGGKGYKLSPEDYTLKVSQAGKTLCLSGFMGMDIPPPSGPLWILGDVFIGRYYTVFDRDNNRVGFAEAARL

IC50 (Cathepsin D) [µM] | IC50 ([1]; Homo sapiens, HEK293) [nM] | IC50 [2] [nM] | IC50 [1] [nM] | SMILES
400 | 206 | 181 | – | COc1cc(F)c2c(c1)[C@]1(CCOC(N)=N1)c1cc(NC(=O)c3ccc(Cl)cc3F)ccc1O2 [Example 76, N-((4S)-2-amino-5′-fluoro-7′-methoxy-5,6-dihydrospiro[1,3-oxazine-4,9′-xanthen]-2′-yl)-4-chloro-2-fluorobenzamide]
69.9 | 3090 | 913 | – | COc1cnc(C(=O)Nc2ccc3c(c2)[C@]2(CCSC(N)=N2)c2cc(Cl)nc(F)c2O3)cn1 [Example 55, N-((5R)-2′-amino-3-chloro-1-fluoro-5′,6′-dihydrospiro[chromeno[2,3-c]pyridine-5,4′-[1,3]thiazin]-7-yl)-5-methoxy-2-pyrazinecarboxamide]
400 | 3.6 | 7 | – | COc1nc(C2=CCOCC2)cc2c1Oc1ccc(NC(=O)c3ccc(Cl)cn3)cc1[C@@]21CCOC(N)=N1 [Example 62, N-((5S)-2′-amino-3-(3,6-dihydro-2H-pyran-4-yl)-1-methoxy-5′,6′-dihydrospiro[chromeno[2,3-c]pyridine-5,4′-[1,3]oxazin]-7-yl)-5-chloro-2-pyridinecarboxamide]
> 400 | 14.8 | 45.1 | – | NC1=N[C@@]2(CCO1)c1cc(NC(=O)c3ccc(Cl)cn3)ccc1Oc1ncccc12 [Example 36, N-((5S)-2′-amino-5′,6′-dihydrospiro[chromeno[2,3-b]pyridine-5,4′-[1,3]oxazin]-7-yl)-5-chloro-2-pyridinecarboxamide]
> 400 | 22.7 | 12.9 | – | COc1nc(C2CC2)cc2c1Oc1ccc(NC(=O)c3ccc(Cl)cn3)cc1[C@@]21CCOC(N)=N1 [Example 53, N-((5S)-2′-amino-3-cyclopropyl-1-methoxy-5′,6′-dihydrospiro[chromeno[2,3-c]pyridine-5,4′-[1,3]oxazin]-7-yl)-5-chloro-2-pyridinecarboxamide]
> 400 | 23 | 7 | – | N#Cc1ccc(C(=O)Nc2ccc3c(c2)[C@@]2(CCOC(N)=N2)c2cc(Cl)nc(F)c2O3)nc1 [Example 46, N-((5S)-2′-amino-3-chloro-1-fluoro-5′,6′-dihydrospiro[chromeno[2,3-c]pyridine-5,4′-[1,3]oxazin]-7-yl)-5-cyano-2-pyridinecarboxamide]
400 | 9.9 | 38.6 | – | NC1=N[C@@]2(CCO1)c1cc(NC(=O)c3ccc(Cl)cn3)ccc1Oc1cnc(Cl)cc12 [Example 79, N-((5S)-2′-amino-3-chloro-5′,6′-dihydrospiro[chromeno[2,3-c]pyridine-5,4′-[1,3]oxazin]-7-yl)-5-chloro-2-pyridinecarboxamide]
133 | 0.082 | 0.6 | – | N#Cc1ccc(C(=O)Nc2ccc3c(c2)[C@@]2(CCOC(N)=N2)c2cc(-c4cncc(F)c4)nc(F)c2O3)nc1 [Example 69, N-((5S)-2′-amino-1-fluoro-3-(5-fluoro-3-pyridinyl)-5′,6′-dihydrospiro[chromeno[2,3-c]pyridine-5,4′-[1,3]oxazin]-7-yl)-5-cyano-2-pyridinecarboxamide]
147 | 4.6 | 10.8 | – | COc1cc(F)c2c(c1)[C@]1(CCOC(N)=N1)c1cc(NC(=O)c3ccc(C#N)cn3)ccc1O2 [Example 74, N-((4S)-2-amino-5′-fluoro-7′-methoxy-5,6-dihydrospiro[1,3-oxazine-4,9′-xanthen]-2′-yl)-5-cyano-2-pyridinecarboxamide]
518 | 0.4 | 0.6 | – | N#Cc1ccc(C(=O)Nc2ccc3c(c2)[C@@]2(CCOC(N)=N2)c2cc(-c4ccnc(F)c4)nc(F)c2O3)nc1 [Example 100, N-((5S)-2′-amino-1-fluoro-3-(2-fluoro-4-pyridinyl)-5′,6′-dihydrospiro[chromeno[2,3-c]pyridine-5,4′-[1,3]oxazin]-7-yl)-5-cyano-2-pyridinecarboxamide]

The next lines start with the compound.

SMILES | IC50 (Cathepsin D) [µM] | IC50 ([1]; Homo sapiens, HEK293) [nM] | IC50 [2] [nM] | IC50 [1] [nM]
Cc1cc(Br)cnc1C(=O)Nc1ccc2c(c1)[C@@]1(CCSC(N)=N1)c1cc(C3=CCOCC3)nc(F)c1O2 [Example 120, N-((5S)-2′-amino-3-(3,6-dihydro-2H-pyran-4-yl)-1-fluoro-5′,6′-dihydrospiro[chromeno[2,3-c]pyridine-5,4′-[1,3]thiazin]-7-yl)-5-bromo-3-methyl-2-pyridinecarboxamide] | 88.3 | 0.5 | 1.4 | –
NC1=N[C@@]2(CCS1)c1cc(NC(=O)c3ccc(F)cn3)ccc1Oc1c2cc(-c2ccnc(F)c2)nc1F [Example 118, N-((5S)-2′-amino-1-fluoro-3-(2-fluoro-4-pyridinyl)-5′,6′-dihydrospiro[chromeno[2,3-c]pyridine-5,4′-[1,3]thiazin]-7-yl)-5-fluoro-2-pyridinecarboxamide] | 400 | 4.2 | 1.5 | –
COc1cnc(C(=O)Nc2ccc3c(c2)[C@@]2(CCSC(N)=N2)c2cc(C4=CCOCC4)cc(F)c2O3)cn1 [Example 60, N-((4S)-2-amino-7′-(3,6-dihydro-2H-pyran-4-yl)-5′-fluoro-5,6-dihydrospiro[1,3-thiazine-4,9′-xanthen]-2′-yl)-5-methoxy-2-pyrazinecarboxamide] | 174 | 4.3 | 6.2 | –
CCOc1cccnc1Nc1ccc2c(c1)[C@@]1(CCSC(N)=N1)c1cc(OC)cc(F)c1O2 [Example 33, (4S)-N~2~′-(3-ethoxy-2-pyridinyl)-5′-fluoro-7′-methoxy-5,6-dihydrospiro[1,3-thiazine-4,9′-xanthene]-2,2′-diamine] | 262 | – | 48.6 | 65.9
COc1cnc(C(=O)Nc2ccc3c(c2)[C@@]2(CCOC(N)=N2)c2cc(-c4ccnc(F)c4)ncc2O3)cn1 [Example 93, N-((5S)-2′-amino-3-(2-fluoro-4-pyridinyl)-5′,6′-dihydrospiro[chromeno[2,3-c]pyridine-5,4′-[1,3]oxazin]-7-yl)-5-methoxy-2-pyrazinecarboxamide] | 400 | 0.5 | 2.9 | –
Cc1cc(Cl)cnc1C(=O)Nc1ccc2c(c1)[C@@]1(CCSC(N)=N1)c1cc(C3=CCOCC3)nc(F)c1O2 [Example 122, N-((5S)-2′-amino-3-(3,6-dihydro-2H-pyran-4-yl)-1-fluoro-5′,6′-dihydrospiro[chromeno[2,3-c]pyridine-5,4′-[1,3]thiazin]-7-yl)-5-chloro-3-methyl-2-pyridinecarboxamide] | 133 | 0.8 | 2.9 | –
COc1cnc(C(=O)Nc2ccc3c(c2)[C@@]2(CCSC(N)=N2)c2cc(O)cc(F)c2O3)cn1 [Example 109, N-((4S)-2-amino-5′-fluoro-7′-hydroxy-5,6-dihydrospiro[1,3-thiazine-4,9′-xanthen]-2′-yl)-5-methoxy-2-pyrazinecarboxamide] | 400 | 64.6 | 28.4 | –
CCOc1cccnc1Nc1ccc2c(c1)[C@@]1(CCOC(N)=N1)c1cc(OC)cc(F)c1O2 [Example 31, (4S)-N~2~′-(3-ethoxy-2-pyridinyl)-5′-fluoro-7′-methoxy-5,6-dihydrospiro[1,3-oxazine-4,9′-xanthene]-2,2′-diamine] | 400 | – | 69.6 | 64.2
COc1cnc(C(=O)Nc2ccc3c(c2)[C@@]2(CCSC(N)=N2)c2cc(C4=CCOCC4)ncc2O3)cn1 [Example 103, N-((5S)-2′-amino-3-(3,6-dihydro-2H-pyran-4-yl)-5′,6′-dihydrospiro[chromeno[2,3-c]pyridine-5,4′-[1,3]thiazin]-7-yl)-5-methoxy-2-pyrazinecarboxamide] | 400 | 1.1 | 1.7 | –
